Legend:
K562 = assay: Antiproliferative activity against human K562 cells by MTT assay; type: functional, cell-based
COLO 205 = assay: Antiproliferative activity against human COLO205 cells by MTT assay; type: functional, cell-based
MDA-MB-231 = assay: Antiproliferative activity against human MDA-MB-231 cells by MTT assay; type: functional, cell-based
[1] = target: T1, NAD-dependent protein deacetylase sirtuin-1 (Homo sapiens) (UniProt Q96EB6); assay: Inhibition of Sirt1 expressed in human U2OS cells assessed as acetylation of p53 at 10 uM; type: cell-based
T1 sequence (whole entry): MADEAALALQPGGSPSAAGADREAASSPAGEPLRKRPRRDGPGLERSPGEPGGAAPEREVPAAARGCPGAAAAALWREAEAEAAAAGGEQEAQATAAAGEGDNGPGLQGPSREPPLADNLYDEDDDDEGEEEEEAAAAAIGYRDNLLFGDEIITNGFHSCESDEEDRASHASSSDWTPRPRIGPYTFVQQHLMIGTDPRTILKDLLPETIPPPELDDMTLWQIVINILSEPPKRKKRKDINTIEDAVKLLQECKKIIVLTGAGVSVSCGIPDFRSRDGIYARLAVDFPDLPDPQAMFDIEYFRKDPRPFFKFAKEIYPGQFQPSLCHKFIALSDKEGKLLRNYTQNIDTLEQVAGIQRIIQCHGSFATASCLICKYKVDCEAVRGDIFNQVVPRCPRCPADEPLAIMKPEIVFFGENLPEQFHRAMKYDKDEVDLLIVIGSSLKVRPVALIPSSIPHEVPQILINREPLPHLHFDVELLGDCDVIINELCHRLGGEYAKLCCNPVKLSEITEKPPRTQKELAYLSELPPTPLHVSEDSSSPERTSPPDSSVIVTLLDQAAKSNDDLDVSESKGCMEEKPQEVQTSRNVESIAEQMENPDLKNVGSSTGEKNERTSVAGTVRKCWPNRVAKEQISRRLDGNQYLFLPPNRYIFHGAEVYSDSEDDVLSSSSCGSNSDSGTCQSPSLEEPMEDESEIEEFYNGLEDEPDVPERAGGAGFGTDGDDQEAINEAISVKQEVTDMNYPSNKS

| Compound | IC50 (K562; Homo sapiens, K562) | IC50 (COLO 205; Homo sapiens, COLO 205) | IC50 (MDA-MB-231; Homo sapiens, MDA-MB-231) | inhibition [1] | IC50 (K562; k562) | IC50 (COLO 205; colo 205) | IC50 (MDA-MB-231; mda-mb-231) |
| --- | --- | --- | --- | --- | --- | --- | --- |
| CCCc1nn(C)c2c(=O)[nH]c(-c3ccc(C)cc3)nc12 | 19 µM | 14 µM | 48 µM | – | – | – | – |
| CCCc1nn(C)c2c(=O)[nH]c(-c3cccc(Br)c3)nc12 | 24 µM | 12 µM | 38 µM | 59% | – | – | – |
| CCCc1nn(C)c2c(=O)[nH]c(-c3cccc([N+](=O)[O-])c3O)nc12 | 21 µM | 10 µM | 44 µM | 61% | – | – | – |
| COc1ccc2c(c1)[nH]c1c(C)nccc12 [HARMINE] | 14 µM | 8 µM | 32 µM | – | – | – | – |
| CCCc1nn(C)c2c(=O)[nH]c(-c3ccc(Br)cc3)nc12 | 17 µM | 25 µM | 46 µM | – | – | – | – |
| Cc1ccc(C(=O)Nc2ccc(S(=O)(=O)O)c3cc(S(=O)(=O)O)cc(S(=O)(=O)O)c23)cc1NC(=O)c1cccc(NC(=O)Nc2cccc(C(=O)Nc3cc(C(=O)Nc4ccc(S(=O)(=O)O)c5cc(S(=O)(=O)O)cc(S(=O)(=O)O)c45)ccc3C)c2)c1 | – | – | – | 79% | – | – | – |
| O=c1[nH]c(-c2ccc([N+](=O)[O-])cc2)nc2ccccc12 | 20 µM | 23 µM | 37 µM | – | 19 µM | 12 µM | 42 µM |
| CCCc1nn(C)c2c(=O)[nH]c(-c3ccc(OC)cc3)nc12 | 21 µM | 9 µM | 44 µM | – | – | – | – |
| COc1ccc(-c2nc(O)c3ccccc3n2)cc1 | 24 µM | 8 µM | 28 µM | – | – | – | – |
| O=c1[nH]c(-c2ccc(Br)cc2)nc2ccccc12 | 21 µM | 11 µM | 41 µM | – | – | – | – |
| O=c1[nH]c(-c2cccc(Cl)c2)nc2ccccc12 | 18 µM | 12 µM | 41 µM | – | – | – | – |
| Oc1nc(-c2ccc(F)cc2)nc2ccccc12 | 17 µM | 10 µM | 20 µM | 48% | – | – | – |
| CCCc1nn(C)c2c(=O)[nH]c(-c3ccc(Cl)cc3)nc12 | 15 µM | 10 µM | 51 µM | – | – | – | – |
| CCCc1nn(C)c2c(=O)[nH]c(-c3cccc(Cl)c3)nc12 | 16 µM | 11 µM | 40 µM | – | – | – | – |
| CCCc1nn(C)c2c(=O)[nH]c(-c3ccc(O)c(OC(F)F)c3)nc12 | 15 µM | 7 µM | 25 µM | 63% | – | – | – |

Source: ChEMBL document CHEMBL2057091, “InCl3-catalysed synthesis of 2-aryl quinazolin-4(3H)-ones and 5-aryl pyrazolo[4,3-d]pyrimidin-7(6H)-ones and their evaluation as potential anticancer agents” (Bioorg Med Chem Lett, 2012)
